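The compound was tested at five concentrations on cells cultured in 96-well plates, with a 48-hour exposure period. Here, GI50 denotes the concentration required for 50% inhibition of growth.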 Calls of active or inactive are those of the source. Rule as the data show it: active = GI50 up to about 1.1 µM and inactive = higher.
What was measured:
Assay in all cases: NCI-60 cell line screen, 48 h
UO-31 = test system: UO-31
MDA-MB-231 = test system: MDA-MB-231
OVCAR-3 = test system: OVCAR-3
SF-539 = test system: SF-539
PC-3 = test system: PC-3
U-251 = test system: U-251
HCT-116 = test system: HCT-116
CCRF-CEM = test system: CCRF-CEM
SNB-19 = test system: SNB-19
HCC 2998 = test system: HCC 2998
A549 = test system: A549
RXF 393 = test system: RXF 393
T47D = test system: T47D
Malme-3M = test system: Malme-3M
HOP-62 = test system: HOP-62
SK-MEL-28 = test system: SK-MEL-28
NCI-H522 = test system: NCI-H522
OVCAR-8 = test system: OVCAR-8
SW-620 = test system: SW-620
M14 = test system: M14
K562 = test system: K562
DU-145 = test system: DU-145
OVCAR-5 = test system: OVCAR-5
SK-MEL-2 = test system: SK-MEL-2
ACHN = test system: ACHN
EKVX = test system: EKVX
A498 = test system: A498
TK-10 = test system: TK-10
CAKI-1 = test system: CAKI-1
MDA-MB-435 = test system: MDA-MB-435
SN12C = test system: SN12C
MCF7 = test system: MCF7
UACC-62 = test system: UACC-62
SF-295 = test system: SF-295
RPMI-8226 = test system: RPMI-8226
HCT-15 = test system: HCT-15
SF-268 = test system: SF-268
LOX IMVI = test system: LOX IMVI
UACC-257 = test system: UACC-257
HL-60 = test system: HL-60
BT-549 = test system: BT-549
NCI/ADR-RES = test system: NCI/ADR-RES
OVCAR-4 = test system: OVCAR-4
Hs-578T = test system: Hs-578T
HOP-92 = test system: HOP-92
NCI-H460 = test system: NCI-H460
786-0 = test system: 786-0
HT-29 = test system: HT-29
COLO 205 = test system: COLO 205
IGROV-1 = test system: IGROV-1
MOLT-4 = test system: MOLT-4
SK-OV-3 = test system: SK-OV-3
SK-MEL-5 = test system: SK-MEL-5
KM12 = test system: KM12
NCI-H23 = test system: NCI-H23

CC(C)c1ccc(NC(=S)NC(=O)c2ccccc2)cc1
GI50 (UO-31): 3.94 µM (inactive)
GI50 (MDA-MB-231): 26.6 µM (inactive)
GI50 (OVCAR-3): 18.1 µM (inactive)
GI50 (SF-539): 36.2 µM (inactive)
GI50 (PC-3): 36.5 µM (inactive)
GI50 (U-251): 26.9 µM (inactive)
GI50 (HCT-116): 22.2 µM (inactive)
GI50 (CCRF-CEM): 11.4 µM (inactive)
GI50 (SNB-19): 48.4 µM (inactive)
GI50 (HCC 2998): 16 µM (inactive)
GI50 (A549): 30.8 µM (inactive)
GI50 (RXF 393): 18.6 µM (inactive)
GI50 (T47D): 18.7 µM (inactive)
GI50 (Malme-3M): 24.5 µM (inactive)
GI50 (HOP-62): 33.8 µM (inactive)
GI50 (SK-MEL-28): 20.8 µM (inactive)
GI50 (NCI-H522): 17.4 µM (inactive)
GI50 (OVCAR-8): 32.3 µM (inactive)
GI50 (SW-620): 22.3 µM (inactive)
GI50 (M14): 17.3 µM (inactive)
GI50 (K562): 12.1 µM (inactive)
GI50 (DU-145): 23.2 µM (inactive)
GI50 (OVCAR-5): 28.3 µM (inactive)
GI50 (SK-MEL-2): 20 µM (inactive)
GI50 (ACHN): 18.2 µM (inactive)
GI50 (EKVX): 30.8 µM (inactive)
GI50 (A498): 22.9 µM (inactive)
GI50 (TK-10): 18.2 µM (inactive)
GI50 (CAKI-1): 20.5 µM (inactive)
GI50 (MDA-MB-435): 13.8 µM (inactive)
GI50 (SN12C): 34.6 µM (inactive)
GI50 (MCF7): 18.4 µM (inactive)
GI50 (UACC-62): 13.6 µM (inactive)
GI50 (SF-295): 14.1 µM (inactive)
GI50 (RPMI-8226): 23.7 µM (inactive)
GI50 (HCT-15): 17.6 µM
GI50 (SF-268): 21.4 µM (inactive)
GI50 (LOX IMVI): 15.3 µM (inactive)
GI50 (UACC-257): 14.8 µM (inactive)
GI50 (HL-60): 3.82 µM (inactive)
GI50 (BT-549): 24.9 µM (inactive)
GI50 (NCI/ADR-RES): 31.7 µM (inactive)
GI50 (OVCAR-4): 16.9 µM (inactive)
GI50 (Hs-578T): 31.8 µM (inactive)
GI50 (HOP-92): 40.9 µM (inactive)
GI50 (NCI-H460): 15.5 µM (inactive)
GI50 (786-0): 18.4 µM (inactive)
GI50 (HT-29): 10.4 µM (inactive)
GI50 (COLO 205): 16.3 µM (inactive)
GI50 (IGROV-1): 25.4 µM (inactive)
GI50 (MOLT-4): 13.1 µM (inactive)
GI50 (SK-OV-3): 42 µM (inactive)
GI50 (SK-MEL-5): 13.4 µM (inactive)
GI50 (KM12): 18.2 µM (inactive)
GI50 (NCI-H23): 23 µM (inactive)
